Test results published in patent US7109223B2, “Oxazolidin-2-one and thiazolidin-2-one derivatives for use as EP4 receptor agonists in the treatment of glaucoma” (Merck & Co. Inc., priority 2002, dated 2006).
Entries after “also recorded” stand apart in the source; their conditions may differ.

Assays:
bone tissue = assay: EP4 and EP2 mRNA levels in vivo in bone tissue (Northern blot); parameters: species or system rat
Procedure: (§1) For mRNA localization experiments, 5-week old Sprague-Dawley rats (Charles River) are euthanized by CO2, their tibiae and calvariae are excised, cleaned of soft tissues and frozen immediately in liquid nitrogen. For EP4 regulation experiments, 6-week old rats are given a single injection of either vehicle (7% ethanol in sterile water) or an anabolic dose of PGE2 (Cayman Chemical, Ann Arbor, Mich.), 3–6 mg/kg in the same vehicle) intraperitoneally. Animals are euthanized at several time points post-injection and their tibiae and calvariae, as well as samples from lung and kidney tissues are frozen in liquid nitrogen.
Total RNA is extracted from the tibial metaphysis or diaphysis and calvaria using a guanidinium isothiocyanate-phenol-chloroform method after pulverizing frozen bone samples by a tissue homogenizer. See P. Chomczynski et al., Single-step method of RNA isolation by acid guanidium thiocyanate-phenol-chloroform extraction, Analyt Biochem, 162, 156–159 (1987), which is incorporated by reference herein in its entirety. RNA samples ([…]) are separated on 0.9% agarose/formaldehyde gels and transferred onto nylon membranes (Boehringer Mannheim, Germany). Membranes are prehybridized in Hybrisol I (Oncor, Gaithersburg, Md.) and 0.5 mg/ml sonicated salmon sperm DNA (Boehringer) at 42° C. for 3 hours and are hybridized at 42° C. with rat EP2 and mouse EP4 cDNA probes labeled with [^32P]-dCTP (Amersham, Buckinghamshire, UK) by random priming using the rediprime kit (Amersham). After hybridization, membranes are washed 4 times in 2× SSC+0.1% SDS at room temperature for a total of 1 hour and once with 0.2× SSC+0.1% SDS at 55° C. for 1 hour and then exposed to Kodak XAR 2 film at −70° C. using intensifying screens. After developing the films, bound probes are removed twice with 0.1% SDS at 80° C. and membranes are hybridized with a human GAPDH (Glyceraldehyde 3-Phosphate Dehydrogenase) cDNA probe (purchased from Clontech, Palo Alto, Calif.) for loading control. […]

TRAB-11 cells = assay: Effect on intracellular cAMP in TRAB-11 cells; format: cell-based, rat
Procedure: (§2) RCT-1 and RCT-3 are clonal cell lines immortalized by SV-40 large T antigen from cells released from fetal rat calvair by a cmbination collagenase/hyaluronidase digestion. RCT-1 cells, derived from cells released during the first 10 minutes of digestion (fraction I), are cultured in RPMI 1640 medium (BRL) with 10% fetal bovine serum and 0.4 mg/ml G418 (BRL). These cells differentiate and express osteoblastic features upon retinoic acid treatment. RCT-3 cells, immortalized from osteoblast-enriched fraction III cells, are cultured in F-12 medium (BRL) with 5% Fetal bovine serum and 0.4 mg/ml G418. TRAB-11 cells are also immortalized by SV40 large T antigen from adult rat tibia and are cultured in RPMI 1640 medium with 10% FBS and 0.4 mg/ml G418. ROS 17/2.8 rat osteosarcoma cells are cultured in F-12 containing 5% FBS. Osteoblast-enriched (fraction III) primary fetal rat calvaria cells are obtained by collagenase/hyaluronidase digestion of calvariae of 19 day-old rat fetuses. See Rodan et al., Growth stimulation of rat calvaria osteoblastic cells by acidic FGF, Endocrinology, 121, 1919–1923 (1987), which is incorporated by reference herein in its entirety. Cells are released during 30–50 minutes digestion (fraction III) and are cultured in F-12 medium containing 5% FBS. […]

[1] = tested on: ROS 17/2.8 rat osteosarcoma cells; assay: Effect on intracellular cAMP in ROS 17/2.8 cells; format: cell-based
Procedure: as §2

bone marrow cells = assay: Localization of EP4 mRNA expression in bone tissue (in situ hybridization); format: in vivo, rat; details: rats, single anabolic dose
Procedure: as §1
Frozen tibiae are sectioned coronally at […] thickness and sections are mounted on charged slides (Probe On Plus, Fisher Scientific, Springfield, N.J.) and are kept at −70° C. until hybridization. cRNA probes are labeled with ^35S-UTPgS (ICN, Costa Mesa, Calif.) using a Riboprobe II kit (Promega Madison, Wis.). Hybridization is performed overnight at 50° C. […]
In situ hybridization is used in order to localize cells expressing EP4 in bone. In control experiment (vehicle-injected) rats, low expression of EP4 is detected in bone marrow cells. […]

RCT-3 cells [2] = assay: EP4 mRNA levels in RCT-3 cells (Northern blot); format: cell-based, rat
Procedure: as §2

RP-1 periosteal cells = assay: EP4 and EP2 mRNA levels in RP-1 periosteal cells (Northern blot); format: cell-based, rat; details: RP-1 cells
Procedure: RP-1 periosteal cells are spontaneously immortalized from primary cultures of periosteal cells from tibae of 4-week old Sprague-Dawley rats and are cultured in DMEM (BRL, Gaithersburg, Md.) with 10% fetal bovine serum (JRH Biosciences, Lenexa, Kans.).
Total RNA is extracted from the tibial metaphysis or diaphysis and calvaria using a guanidinium isothiocyanate-phenol-chloroform method after pulverizing frozen bone samples by a tissue homogenizer. See P. Chomczynski et al., Single-step method of RNA isolation by acid guanidium thiocyanate-phenol-chloroform extraction, Analyt Biochem, 162, 156–159 (1987), which is incorporated by reference herein in its entirety. RNA samples ([…]) are separated on 0.9% agarose/formaldehyde gels and transferred onto nylon membranes (Boehringer Mannheim, Germany). Membranes are prehybridized in Hybrisol I (Oncor, Gaithersburg, Md.) and 0.5 mg/ml sonicated salmon sperm DNA (Boehringer) at 42° C. for 3 hours and are hybridized at 42° C. with rat EP2 and mouse EP4 cDNA probes labeled with [^32P]-dCTP (Amersham, Buckinghamshire, UK) by random priming using the rediprime kit (Amersham). After hybridization, membranes are washed 4 times in 2× SSC+0.1% SDS at room temperature for a total of 1 hour and once with 0.2× SSC+0.1% SDS at 55° C. for 1 hour and then exposed to Kodak XAR 2 film at −70° C. using intensifying screens. After developing the films, bound probes are removed twice with 0.1% SDS at 80° C. and membranes are hybridized with a human GAPDH (Glyceraldehyde 3-Phosphate Dehydrogenase) cDNA probe (purchased from Clontech, Palo Alto, Calif.) for loading control.
PGE2 enhances its own production via upregulation of cyclooxygenase 2 expression in osteoblasts and in bone tissue thus autoamplifying its own effects. PGE2 also increases the levels of EP4 mRNA. RP-1 cells are immortalized from a primary culture of adult rat tibia periosteum is examined. These cells express osteoblast phenotypic markers upon confluence and form mineralized bone matrix when implanted in nude mice. […]

RCT-3 cells [3] = assay: Effect on intracellular cAMP in RCT-3 cells; format: cell-based, rat
Procedure: as §2

With `CCCCC[C@H](O)/C=C/[C@H]1[C@H](O)CC(=O)[C@@H]1C/C=C\CCCC(=O)O` [PGE2] the “time of peak EP4 mRNA levels in the tibial diaphysis after injection” value (bone tissue; five-week-old male rats, 3–6 mg/Kg) was 2 h, the “EP4 mRNA levels in the tibial diaphysis” value (bone tissue; five-week-old male rats, 3–6 mg/Kg, systemic administration) was “rapidly increased” and the “EP2 mRNA in bone tissue” value (bone tissue; rats) was “does not induce”. For the same compound, the “effect on intracellular cAMP” value (TRAB-11 cells) was “markedly induced”, the “effect on intracellular cAMP” value [1] was “no effect” and the “expression of EP4 in bone marrow cells” value (bone marrow cells) was “increased”. The “EP4 mRNA levels” value (RCT-3 cells [2]) was “no effect”, the “EP2 mRNA” value (RP-1 periosteal cells) was “not expressed; also recorded: does not induce” and the “EP4 mRNA levels” value (RP-1 periosteal cells; 10^−6M) was “rapidly increases”. For the same compound, the “time of peak EP4 mRNA levels after treatment” value (RP-1 periosteal cells; 10^−6M) was 2 h and the “effect on intracellular cAMP” value (RCT-3 cells [3]) was “markedly induced”.
